This test relates to P388 leukemia ip, CD2F1 mice, survival T/C. The experiment in a line: NCI In Vivo Anticancer Drug Screen. Data for tumor model P388 Leukemia (intraperitoneal) in CD2F1 (CDF1) mice. The note with it: endpoint: median survival time, higher = longer survival. Put shortly: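 Mice carrying the transplanted tumor received test compound or vehicle. Survival was recorded in each group, and the value is the treated-group measurement divided by that of the vehicle-treated control group.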

Where [1] appears, read: dose: 1.56 mg/kg/injection, schedule: Q04DX003 (ip), vehicle: water.
The mark [2] stands for this setting: dose: 3.13 mg/kg/injection, schedule: Q04DX003 (ip), vehicle: water.
Setting [3] is: dose: 6.25 mg/kg/injection, schedule: Q04DX003 (ip), vehicle: water.
The mark [4] stands for this setting: dose: 25.0 mg/kg/injection, schedule: Q04DX003 (ip), vehicle: water.
The mark [5] stands for this setting: dose: 100.0 mg/kg/injection, schedule: Q04DX003 (ip), vehicle: water.
The mark [6] stands for this setting: dose: 16.0 mg/kg/injection, schedule: Q01DX009 (ip), vehicle: Klucel (hydroxypropylcellulose) (HPC).
The mark [7] stands for this setting: dose: 32.0 mg/kg/injection, schedule: Q01DX009 (ip), vehicle: Klucel (hydroxypropylcellulose) (HPC).
The mark [8] stands for this setting: dose: 50.0 mg/kg/injection, schedule: Q01DX005 (ip), vehicle: saline.
[9] abbreviates: dose: 50.0 mg/kg/injection, schedule: Q01DX009 (ip), vehicle: saline.
Setting [10] is: dose: 100.0 mg/kg/injection, schedule: Q01DX005 (ip), vehicle: saline.
Setting [11] is: dose: 100.0 mg/kg/injection, schedule: Q01DX009 (ip), vehicle: saline.
[12] abbreviates: dose: 200.0 mg/kg/injection, schedule: Q01DX005 (ip), vehicle: saline.
Where [13] appears, read: dose: 50.0 mg/kg/injection, schedule: Q01DX009 (ip), vehicle: Klucel (hydroxypropylcellulose) (HPC).
The mark [14] stands for this setting: dose: 100.0 mg/kg/injection, schedule: Q01DX009 (ip), vehicle: Klucel (hydroxypropylcellulose) (HPC).
[15] abbreviates: dose: 200.0 mg/kg/injection, schedule: Q01DX009 (ip), vehicle: Klucel (hydroxypropylcellulose) (HPC).

Several values for one entry are separate records, joined by “and”; a condition that tells them apart may be missing. Equal values may be shown once. Toxic doses and inconclusive results are not listed.

With `COc1cccc2c1C(=O)c1c(O)c3c(c(O)c1C2=O)C[C@@](O)(/C(C)=N/NC(=O)c1cccc([N+](=O)[O-])c1)C[C@@H]3OC1CC(N)C(O)C(C)O1` (stereo partly specified), the T/C by setting is: (dose: 0.5 mg/kg/injection, schedule: Q01DX009 (ip), vehicle: water) 152 % of control; (dose: 1.0 mg/kg/injection, schedule: Q01DX009 (ip), vehicle: water) 155 % of control; (dose: 1.0 mg/kg/injection, schedule: Q04DX003 (ip), vehicle: saline) 100 % of control and 112 % of control; under setting [1], 106 % of control; (dose: 2.0 mg/kg/injection, schedule: Q01DX009 (ip), vehicle: water) 172 % of control and 179 % of control; (dose: 2.0 mg/kg/injection, schedule: Q04DX003 (ip), vehicle: saline) 100 % of control and 115 % of control. In addition, the T/C under setting [2] was 112 % of control and 117 % of control; the T/C (dose: 4.0 mg/kg/injection, schedule: Q01DX009 (ip), vehicle: water) is 190 % of control and 200 % of control; the T/C (dose: 4.0 mg/kg/injection, schedule: Q04DX003 (ip), vehicle: saline) is 113 % of control and 122 % of control; the T/C (dose: 5.0 mg/kg/injection, schedule: Q01DX001 (ip), vehicle: water) is 167 % of control; the T/C under setting [3] was 114 % of control and 122 % of control; the T/C (dose: 8.0 mg/kg/injection, schedule: Q01DX009 (ip), vehicle: water) is 123 % of control and 202 % of control. Besides, the T/C reads like this: (dose: 8.0 mg/kg/injection, schedule: Q04DX003 (ip), vehicle: saline) 112 % of control and 115 % of control and 95 % of control; (dose: 10.0 mg/kg/injection, schedule: Q01DX001 (ip), vehicle: water) 186 % of control; (dose: 16.0 mg/kg/injection, schedule: Q04DX003 (ip), vehicle: saline) 110 % of control and 115 % of control and 123 % of control; under setting [4], 168 % of control; (dose: 32.0 mg/kg/injection, schedule: Q04DX003 (ip), vehicle: saline) 118 % of control; (dose: 64.0 mg/kg/injection, schedule: Q04DX003 (ip), vehicle: saline) 174 % of control. Further, the T/C is 114 % of control under setting [5]; 92 % of control (dose: 512.0 mg/kg/injection, schedule: Q04DX003 (ip), vehicle: saline); 93 % of control (dose: 1024.0 mg/kg/injection, schedule: Q04DX003 (ip), vehicle: saline); 90 % of control (dose: 2048.0 mg/kg/injection, schedule: Q04DX003 (ip), vehicle: saline).

For the molecule `O=C1C=CC(=O)N1C(=O)NC(NC(=O)N1C(=O)C=CC1=O)c1cccc2ccccc12`, the T/C reads like this: (dose: 50.0 mg/kg/injection, schedule: Q01DX005 (ip), vehicle: saline with Tween-80) 100 % of control; (dose: 100.0 mg/kg/injection, schedule: Q01DX005 (ip), vehicle: saline with Tween-80) 99 % of control; (dose: 200.0 mg/kg/injection, schedule: Q01DX005 (ip), vehicle: saline with Tween-80) 90 % of control.

Turning to `CCCn1c(=O)n(CC)c(=O)c2[nH]c(Cl)nc21`, the T/C runs as follows: under setting [6], 100 % of control and 105 % of control; under setting [7], 102 % of control and 105 % of control; (dose: 64.0 mg/kg/injection, schedule: Q01DX009 (ip), vehicle: Klucel (hydroxypropylcellulose) (HPC)) 108 % of control and 112 % of control.

As for `NC(=S)N/N=C/c1ncccc1O`, the T/C was 158 % of control (dose: 25.0 mg/kg/injection, schedule: Q01DX009 (ip), vehicle: saline); 155 % of control under setting [8]; 151 % of control and 158 % of control under setting [9]; 162 % of control under setting [10]; 167 % of control (dose: 100.0 mg/kg/injection, schedule: Q01DX005 (ip), vehicle: suspension in saline); 180 % of control under setting [11]. The T/C is 157 % of control under setting [12] and 90 % of control (dose: 200.0 mg/kg/injection, schedule: Q01DX005 (ip), vehicle: suspension in saline).

Consider `C=C1CCC2(O)C(=C)C(=O)OC2C2C(=C)CCC12` (stereo unspecified), for which the T/C (dose: 4.0 mg/kg/injection, schedule: Q01DX009 (ip), vehicle: Klucel (hydroxypropylcellulose) (HPC)) was 96 % of control; the T/C (dose: 8.0 mg/kg/injection, schedule: Q01DX009 (ip), vehicle: Klucel (hydroxypropylcellulose) (HPC)) was 100 % of control; the T/C under setting [6] is 102 % of control; the T/C under setting [7] was 110 % of control.

`CCCCCCCCCCCCC1OCN2CCCCC12` (stereo unspecified): the T/C was 106 % of control under setting [8], 100 % of control under setting [10] and 113 % of control under setting [12].

As to `CCC1(O)CC(OC2CC(O)C(O)C(C)O2)c2c(O)c3c(c(O)c2C1C(=O)OC)C(=O)c1cccc(O)c1C3=O` (stereo unspecified), the T/C by setting is: under setting [1], 104 % of control; under setting [2], 103 % of control; under setting [3], 103 % of control; (dose: 12.5 mg/kg/injection, schedule: Q04DX003 (ip), vehicle: water) 109 % of control; under setting [4], 109 % of control; (dose: 50.0 mg/kg/injection, schedule: Q04DX003 (ip), vehicle: water) 104 % of control. In addition, the T/C reads like this: under setting [5], 119 % of control; (dose: 200.0 mg/kg/injection, schedule: Q04DX003 (ip), vehicle: water) 109 % of control.

On to `CN(C)c1cc(N(C)C)c2cc(-c3ccccc3)sc2n1`, for which the T/C runs as follows: under setting [13], 98 % of control; under setting [14], 103 % of control; under setting [15], 96 % of control.

For `Clc1cccc(/C=C/c2ccnnc2)c1`, the T/C was 101 % of control under setting [9]; 86 % of control and 97 % of control under setting [11]; 103 % of control and 96 % of control (dose: 200.0 mg/kg/injection, schedule: Q01DX009 (ip), vehicle: saline).

With `O=c1oc2nc3ccc(Cl)cc3c(=O)n2c2ccc(Cl)cc12`, the T/C under setting [13] was 108 % of control, the T/C under setting [14] was 118 % of control and the T/C under setting [15] was 104 % of control.

As for `CCOC(=O)C(CC(=O)O)Cc1cccc(OC)c1OC` (stereo unspecified), the T/C (dose: 25.0 mg/kg/injection, schedule: Q01DX009 (ip), vehicle: other) is 101 % of control; the T/C (dose: 50.0 mg/kg/injection, schedule: Q01DX009 (ip), vehicle: other) was 100 % of control; the T/C (dose: 100.0 mg/kg/injection, schedule: Q01DX009 (ip), vehicle: other) is 111 % of control; the T/C (dose: 200.0 mg/kg/injection, schedule: Q01DX009 (ip), vehicle: other) was 97 % of control; the T/C (dose: 400.0 mg/kg/injection, schedule: Q01DX009 (ip), vehicle: other) was 93 % of control.

With `COc1cc2c3c4c1OCc1c5c(cc(c1-4)CC3[N+](C)(C)CC2)OCO5` (stereo unspecified), the T/C (dose: 25.0 mg/kg/injection, schedule: Q01DX001 (ip), vehicle: saline) is 100 % of control.

Regarding `CC/C(=N\NS(=O)(=O)c1ccc(C)cc1)c1ccc(Br)cc1`, the T/C was 100 % of control (dose: 100.0 mg/kg/injection, schedule: Q04DX002 (ip), vehicle: saline); 105 % of control (dose: 200.0 mg/kg/injection, schedule: Q04DX002 (ip), vehicle: saline); 96 % of control (dose: 400.0 mg/kg/injection, schedule: Q04DX002 (ip), vehicle: saline).

In the case of `COC1C(C)OC(OC2CC(C)(O)C(C(=O)O)c3cc4c(c(O)c32)C(=O)c2c(O)cc3c(c2C4=O)OC2OC3(C)C(O)C(N(C)C)C2O)C(OC)C1(C)OC` (stereo unspecified), the T/C by setting is: (dose: 1.25 mg/kg/injection, schedule: Q04DX003 (ip), vehicle: other) 119 % of control; (dose: 2.5 mg/kg/injection, schedule: Q04DX003 (ip), vehicle: other) 113 % of control; (dose: 5.0 mg/kg/injection, schedule: Q04DX003 (ip), vehicle: other) 122 % of control; (dose: 20.0 mg/kg/injection, schedule: Q04DX003 (ip), vehicle: other) 155 % of control.

With `CC12CCC(OC3OC(CO)C(O)C(O)C3O)CC1CCC1C2CCC2(C)C(c3ccc(=O)oc3)CCC12O` (stereo unspecified), the T/C is 96 % of control (dose: 0.35 mg/kg/injection, schedule: Q01DX009 (ip), vehicle: saline); 102 % of control (dose: 0.7 mg/kg/injection, schedule: Q01DX009 (ip), vehicle: saline); 100 % of control (dose: 1.4 mg/kg/injection, schedule: Q01DX009 (ip), vehicle: saline).

Values taken from PubChem BioAssay AID330 (DTP/NCI, 2004).
